Test results taken from ChEMBL document CHEMBL6074671, “Discovery of Pyridine-2-Carboxamides Derivatives as Potent and Selective HPK1 Inhibitors for the Treatment of Cancer” (J Med Chem, 2024).
Converted amounts (≈) assume the structure as drawn.

Tests used:
[1] = target: Mitogen-activated protein kinase kinase kinase kinase 1 (Homo sapiens, UniProt Q92918); assay: Inhibition of HPK1 in human PBMC cells assessed as IL-2 level pretreated for 4 hrs followed by anti-CD3/CD28 stimulation for 20 mins by HTRF method; assay type: cell-based
[2] = Half life in Balb/c mouse at 10 mg/kg, po; assay type: ADME, organism-based; conditions: in vivo
[3] = Oral bioavailability in Balb/c mouse at 10 mg/kg; assay type: ADME, organism-based; conditions: in vivo
[4] = target: T1, Mitogen-activated protein kinase kinase kinase kinase 3 (Homo sapiens, UniProt Q8IVH8); assay: Inhibition of human recombinant GST-tagged MAP4K3 ([…]) extracted from Baculovirus expression system
T1 sequence (Q8IVH8 whole entry): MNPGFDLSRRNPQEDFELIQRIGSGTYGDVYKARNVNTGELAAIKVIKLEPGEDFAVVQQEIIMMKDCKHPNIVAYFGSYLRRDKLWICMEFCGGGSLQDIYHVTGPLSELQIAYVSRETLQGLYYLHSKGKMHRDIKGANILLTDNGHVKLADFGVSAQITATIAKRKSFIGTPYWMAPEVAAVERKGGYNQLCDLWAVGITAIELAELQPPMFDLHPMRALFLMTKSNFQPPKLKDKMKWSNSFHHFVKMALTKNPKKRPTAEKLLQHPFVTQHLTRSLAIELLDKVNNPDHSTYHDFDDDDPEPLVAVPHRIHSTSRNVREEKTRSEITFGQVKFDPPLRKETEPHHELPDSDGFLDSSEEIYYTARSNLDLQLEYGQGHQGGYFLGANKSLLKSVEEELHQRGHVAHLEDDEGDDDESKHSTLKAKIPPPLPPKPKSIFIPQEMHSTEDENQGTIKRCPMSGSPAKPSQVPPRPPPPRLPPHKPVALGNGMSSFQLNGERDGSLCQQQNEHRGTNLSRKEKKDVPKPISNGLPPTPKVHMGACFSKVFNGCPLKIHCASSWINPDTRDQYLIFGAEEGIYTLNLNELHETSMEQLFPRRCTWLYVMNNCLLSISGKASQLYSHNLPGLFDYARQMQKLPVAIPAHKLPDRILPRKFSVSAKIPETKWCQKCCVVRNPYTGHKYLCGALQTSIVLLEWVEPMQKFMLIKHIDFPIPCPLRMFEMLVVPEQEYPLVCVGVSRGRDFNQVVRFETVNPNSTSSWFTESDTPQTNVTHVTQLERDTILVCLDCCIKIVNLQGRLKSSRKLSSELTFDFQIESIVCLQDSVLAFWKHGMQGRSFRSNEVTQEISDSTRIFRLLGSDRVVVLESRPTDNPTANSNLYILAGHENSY

[5] = target: Mitogen-activated protein kinase kinase kinase kinase 4 (Homo sapiens, UniProt O95819); assay: Inhibition of catalytic domain N-terminal GST tagged human MAP4K4 (1 to 328 residues) expressed in insect Sf21 cells
[6] = target: Tyrosine-protein kinase SYK (Homo sapiens, UniProt P43405); assay: Inhibition of SYK (unknown origin)
[7] = target: Cyclin-dependent kinase 2 (Homo sapiens, UniProt P24941); assay: Inhibition of CDK2 (unknown origin)
[8] = target: Non-receptor tyrosine-protein kinase TYK2 (Homo sapiens, UniProt P29597); assay: Inhibition of TYK2 (unknown origin)
[9] = target: Serine/threonine-protein kinase PAK 3 (Homo sapiens, UniProt O75914); assay: Inhibition of PAK3 (unknown origin)
[10] = target: Mitogen-activated protein kinase kinase kinase 7 (Homo sapiens, UniProt O43318); assay: Inhibition of TAK1 (unknown origin)
[11] = target: Tyrosine-protein kinase ITK/TSK (Homo sapiens, UniProt Q08881); assay: Inhibition of ITK (unknown origin)
[12] = target: Serine/threonine-protein kinase PLK4 (Homo sapiens, UniProt O00444); assay: Inhibition of PLK4 (unknown origin)
[13] = target: Proto-oncogene tyrosine-protein kinase Src (Homo sapiens, UniProt P12931); assay: Inhibition of SRC (unknown origin)
[14] = target: Proto-oncogene tyrosine-protein kinase receptor Ret (Homo sapiens, UniProt P07949); assay: Inhibition of RET (unknown origin)
[15] = Toxicity in Balb/c mouse assessed as effect on body weight loss at 1.5 to 12 mg/kg, po BID measured after 15 days in presence of anti-PD1; assay type: organism-based; conditions: in vivo, 360 h, dose 1.5-12 mg/kg, time 15 day
[16] = system: MC-38; assay: Antitumor activity against mouse MC38 cells implanted in C57BL/6 mouse model assessed as tumor growth inhibition at 3 mg/kg, po BID measured after 12 days relative to control; assay type: functional; conditions: MC-38, 288 h, time 12 day, read-out: TGI
[17] = Toxicity in C57BL/6 mouse implanted with mouse MC38 cells assessed as increase in survival at low dose, po BID measured after 12 days; assay type: organism-based; conditions: in vivo, 288 h, time 12 day
[18] = Kinetic solubility of the compound in PBS buffer at pH 7.4 measured after 24 hrs by HPL-UV analysis; assay type: physicochemical; conditions: read-out: Kinetic_solubility
[19] = Permeability of the compound in human Caco-2 cells measured after 90 mins by UPLC-MS/MS analysis; assay type: ADME, cell-based; conditions: read-out: permeability
[20] = Efflux ratio in human Caco-2 cells; assay type: ADME, cell-based
[21] = Plasma protein binding in human assessed as unbound fraction at 2 uM incubated for 4 hrs by LC-MS/MS analysis; assay type: ADME, cell-free
[22] = Plasma protein binding in dog assessed as unbound fraction at 2 uM incubated for 4 hrs by LC-MS/MS analysis; assay type: ADME, cell-free, Canis lupus familiaris
[23] = Plasma protein binding in cynomolgous monkey assessed as unbound fraction at 2 uM incubated for 4 hrs by LC-MS/MS analysis; assay type: ADME, cell-free, Macaca fascicularis; conditions: cynomolgus monkey
[24] = target: Cytochrome P450 2C19 (Homo sapiens, UniProt P33261); assay: Inhibition of CYP2C19 in human liver microsomes using S-mephenytoin 4-hydroxylation as substrate incubated for 10 mins in presence of NADPH by LC-MS/MS analysis; assay type: ADME, Microsome
[25] = target: Cytochrome P450 2D6 (Homo sapiens, UniProt P10635); assay: Inhibition of CYP2D6 in human liver microsomes using O-demethylation as substrate incubated for 10 mins in presence of NADPH by LC-MS/MS analysis; assay type: ADME, Microsome
[26] = target: Voltage-gated inwardly rectifying potassium channel KCNH2 (Homo sapiens, UniProt Q12809); assay: Inhibition of human ERG expressed in CHO cells; assay type: toxicity, cell-based
[27] = Genotoxicity in Salmonella typhimurium TA98 incubated for 48 to 72 hrs in presence of S9 fraction by AMES test; assay type: toxicity, subcellular; conditions: salmonella enterica subsp. enterica serovar typhimurium, time 48-72 hrs
[28] = Genotoxicity in Salmonella typhimurium TA1537 incubated for 48 to 72 hrs in presence of S9 fraction by AMES test; assay type: toxicity, subcellular; conditions: salmonella enterica subsp. enterica serovar typhimurium, time 48-72 hrs
[29] = Effect on IFN-gamma secretion in human T cells by ELISA method; assay type: functional, cell-based; conditions: T-cell
[30] = cynomolgus monkey, in vivo, po, 2 mg/kg
[31] = in vivo; conditions: Beagle, dog, po, 2 mg/kg
Description: Half life in Beagle dog at 2 mg/kg, po

[32] = in vivo; conditions: Beagle, dog, po, 2 mg/kg; remark: listed apart in the source

Mitogen-activated protein kinase kinase kinase kinase 1, sequence (Q92918 whole entry): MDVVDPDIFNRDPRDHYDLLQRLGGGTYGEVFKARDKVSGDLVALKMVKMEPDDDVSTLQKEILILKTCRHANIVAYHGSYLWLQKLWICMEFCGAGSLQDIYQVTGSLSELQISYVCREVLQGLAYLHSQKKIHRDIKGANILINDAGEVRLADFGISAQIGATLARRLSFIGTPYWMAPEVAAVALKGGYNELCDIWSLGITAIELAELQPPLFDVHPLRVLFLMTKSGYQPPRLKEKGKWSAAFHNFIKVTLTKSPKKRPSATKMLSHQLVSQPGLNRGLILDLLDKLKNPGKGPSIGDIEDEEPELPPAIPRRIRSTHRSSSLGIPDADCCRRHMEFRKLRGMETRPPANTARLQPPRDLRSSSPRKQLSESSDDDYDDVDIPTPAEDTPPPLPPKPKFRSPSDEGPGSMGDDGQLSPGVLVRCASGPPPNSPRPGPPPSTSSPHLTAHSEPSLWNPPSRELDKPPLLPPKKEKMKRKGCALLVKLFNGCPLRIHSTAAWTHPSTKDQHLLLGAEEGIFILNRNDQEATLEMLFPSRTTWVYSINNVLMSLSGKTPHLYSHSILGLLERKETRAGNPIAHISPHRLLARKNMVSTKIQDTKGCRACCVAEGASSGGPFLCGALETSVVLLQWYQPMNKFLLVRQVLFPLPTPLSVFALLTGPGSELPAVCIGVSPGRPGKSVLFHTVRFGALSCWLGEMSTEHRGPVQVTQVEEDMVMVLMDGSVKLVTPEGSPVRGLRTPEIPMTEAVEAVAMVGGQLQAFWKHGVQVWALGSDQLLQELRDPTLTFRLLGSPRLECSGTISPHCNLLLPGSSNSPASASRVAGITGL
Serine/threonine-protein kinase PAK 3, sequence (O75914 whole entry): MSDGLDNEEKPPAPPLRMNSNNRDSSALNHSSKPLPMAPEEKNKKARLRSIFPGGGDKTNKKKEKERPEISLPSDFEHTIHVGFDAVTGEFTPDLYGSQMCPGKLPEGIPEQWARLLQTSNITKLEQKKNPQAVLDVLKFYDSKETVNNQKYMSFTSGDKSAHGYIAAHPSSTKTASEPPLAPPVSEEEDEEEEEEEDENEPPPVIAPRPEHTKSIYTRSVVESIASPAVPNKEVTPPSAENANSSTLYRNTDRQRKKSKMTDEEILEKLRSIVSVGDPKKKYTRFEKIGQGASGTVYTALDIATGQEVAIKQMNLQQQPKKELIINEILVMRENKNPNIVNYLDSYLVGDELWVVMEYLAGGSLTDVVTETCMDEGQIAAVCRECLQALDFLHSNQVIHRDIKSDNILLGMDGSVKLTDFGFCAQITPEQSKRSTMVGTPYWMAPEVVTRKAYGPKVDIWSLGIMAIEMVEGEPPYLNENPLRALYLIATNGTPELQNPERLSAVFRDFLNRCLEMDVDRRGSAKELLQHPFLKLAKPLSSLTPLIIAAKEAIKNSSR
Proto-oncogene tyrosine-protein kinase receptor Ret, sequence (P07949 whole entry): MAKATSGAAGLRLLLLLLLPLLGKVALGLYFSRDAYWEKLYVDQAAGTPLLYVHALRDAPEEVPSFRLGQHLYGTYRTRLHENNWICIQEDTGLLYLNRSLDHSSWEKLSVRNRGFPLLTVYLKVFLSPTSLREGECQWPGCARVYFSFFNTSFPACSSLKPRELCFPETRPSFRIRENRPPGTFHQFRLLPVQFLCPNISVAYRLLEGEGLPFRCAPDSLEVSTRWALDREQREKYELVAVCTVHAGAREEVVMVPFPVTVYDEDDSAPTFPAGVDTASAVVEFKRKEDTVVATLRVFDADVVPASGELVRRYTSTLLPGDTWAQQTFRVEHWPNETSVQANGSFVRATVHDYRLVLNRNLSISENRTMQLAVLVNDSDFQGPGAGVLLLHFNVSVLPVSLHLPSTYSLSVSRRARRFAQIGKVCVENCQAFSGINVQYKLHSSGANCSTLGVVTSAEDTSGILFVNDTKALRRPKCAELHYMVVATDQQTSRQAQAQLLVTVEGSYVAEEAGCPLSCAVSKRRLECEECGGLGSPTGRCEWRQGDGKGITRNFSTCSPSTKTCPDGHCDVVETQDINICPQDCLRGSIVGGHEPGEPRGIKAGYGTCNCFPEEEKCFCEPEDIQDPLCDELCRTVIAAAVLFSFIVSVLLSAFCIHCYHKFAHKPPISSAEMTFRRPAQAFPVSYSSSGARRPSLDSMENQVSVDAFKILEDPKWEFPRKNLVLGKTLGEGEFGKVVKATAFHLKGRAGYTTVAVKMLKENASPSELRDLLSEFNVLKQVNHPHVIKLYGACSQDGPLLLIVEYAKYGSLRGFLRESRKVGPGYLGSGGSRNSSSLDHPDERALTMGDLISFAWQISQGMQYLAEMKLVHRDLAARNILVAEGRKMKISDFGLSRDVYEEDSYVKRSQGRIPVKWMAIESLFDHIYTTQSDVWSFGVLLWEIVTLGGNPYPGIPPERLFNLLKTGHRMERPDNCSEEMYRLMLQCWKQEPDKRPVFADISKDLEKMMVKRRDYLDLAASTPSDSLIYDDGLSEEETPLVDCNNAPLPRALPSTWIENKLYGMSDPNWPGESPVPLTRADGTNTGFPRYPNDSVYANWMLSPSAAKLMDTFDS
Proto-oncogene tyrosine-protein kinase Src, sequence (P12931 2-536 limits assumed): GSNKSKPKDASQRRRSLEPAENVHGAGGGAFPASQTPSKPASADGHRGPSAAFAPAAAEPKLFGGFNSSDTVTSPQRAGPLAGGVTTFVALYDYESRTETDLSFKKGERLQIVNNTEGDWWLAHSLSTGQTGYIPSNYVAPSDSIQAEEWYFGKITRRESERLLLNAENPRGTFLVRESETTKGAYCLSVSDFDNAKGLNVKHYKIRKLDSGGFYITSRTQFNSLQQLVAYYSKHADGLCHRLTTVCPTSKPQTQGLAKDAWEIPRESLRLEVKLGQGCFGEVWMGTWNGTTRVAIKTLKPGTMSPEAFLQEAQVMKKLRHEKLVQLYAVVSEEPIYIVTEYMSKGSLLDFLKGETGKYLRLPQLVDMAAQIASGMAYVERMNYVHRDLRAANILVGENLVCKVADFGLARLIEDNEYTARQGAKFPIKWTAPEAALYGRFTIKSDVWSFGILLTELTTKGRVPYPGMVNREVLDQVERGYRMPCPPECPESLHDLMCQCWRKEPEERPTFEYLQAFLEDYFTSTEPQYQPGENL
Cytochrome P450 2D6, sequence (P10635 whole entry): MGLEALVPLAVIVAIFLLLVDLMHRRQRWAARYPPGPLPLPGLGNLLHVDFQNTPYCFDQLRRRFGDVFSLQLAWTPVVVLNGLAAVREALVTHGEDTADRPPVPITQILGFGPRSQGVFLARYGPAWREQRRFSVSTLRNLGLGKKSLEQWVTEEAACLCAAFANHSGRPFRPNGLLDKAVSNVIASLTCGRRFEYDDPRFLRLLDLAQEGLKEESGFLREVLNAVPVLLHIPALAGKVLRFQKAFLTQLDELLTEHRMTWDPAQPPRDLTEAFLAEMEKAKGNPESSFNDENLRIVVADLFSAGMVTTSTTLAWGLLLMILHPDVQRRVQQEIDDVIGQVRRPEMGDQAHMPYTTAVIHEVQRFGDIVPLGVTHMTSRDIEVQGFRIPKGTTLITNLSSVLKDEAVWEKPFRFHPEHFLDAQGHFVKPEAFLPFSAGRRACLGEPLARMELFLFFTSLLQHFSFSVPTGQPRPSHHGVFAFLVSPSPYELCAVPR
Serine/threonine-protein kinase PLK4, sequence (O00444 whole entry): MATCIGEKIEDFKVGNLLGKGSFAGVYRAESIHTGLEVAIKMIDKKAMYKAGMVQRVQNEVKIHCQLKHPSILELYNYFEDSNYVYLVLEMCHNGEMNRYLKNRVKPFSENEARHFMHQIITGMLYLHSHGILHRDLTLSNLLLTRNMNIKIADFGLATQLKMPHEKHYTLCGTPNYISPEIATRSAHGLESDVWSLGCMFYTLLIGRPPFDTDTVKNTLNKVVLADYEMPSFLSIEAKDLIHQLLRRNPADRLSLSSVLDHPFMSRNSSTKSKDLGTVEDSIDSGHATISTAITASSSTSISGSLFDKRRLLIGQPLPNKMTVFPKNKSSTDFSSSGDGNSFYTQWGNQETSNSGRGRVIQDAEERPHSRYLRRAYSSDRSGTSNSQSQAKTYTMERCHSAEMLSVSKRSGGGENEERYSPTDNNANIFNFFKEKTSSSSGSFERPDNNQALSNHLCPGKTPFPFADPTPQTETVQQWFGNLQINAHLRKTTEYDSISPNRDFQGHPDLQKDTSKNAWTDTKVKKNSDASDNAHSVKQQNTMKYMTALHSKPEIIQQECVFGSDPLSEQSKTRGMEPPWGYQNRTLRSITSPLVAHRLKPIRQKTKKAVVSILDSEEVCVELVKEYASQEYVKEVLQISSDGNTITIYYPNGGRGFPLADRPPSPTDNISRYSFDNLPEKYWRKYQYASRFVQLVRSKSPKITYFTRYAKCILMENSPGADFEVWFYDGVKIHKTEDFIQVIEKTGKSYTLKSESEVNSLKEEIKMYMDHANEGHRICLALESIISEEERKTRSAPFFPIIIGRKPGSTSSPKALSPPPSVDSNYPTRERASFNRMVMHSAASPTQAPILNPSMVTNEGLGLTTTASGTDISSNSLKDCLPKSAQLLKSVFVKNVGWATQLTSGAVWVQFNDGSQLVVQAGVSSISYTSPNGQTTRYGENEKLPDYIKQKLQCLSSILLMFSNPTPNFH
Cytochrome P450 2C19, sequence (P33261 whole entry): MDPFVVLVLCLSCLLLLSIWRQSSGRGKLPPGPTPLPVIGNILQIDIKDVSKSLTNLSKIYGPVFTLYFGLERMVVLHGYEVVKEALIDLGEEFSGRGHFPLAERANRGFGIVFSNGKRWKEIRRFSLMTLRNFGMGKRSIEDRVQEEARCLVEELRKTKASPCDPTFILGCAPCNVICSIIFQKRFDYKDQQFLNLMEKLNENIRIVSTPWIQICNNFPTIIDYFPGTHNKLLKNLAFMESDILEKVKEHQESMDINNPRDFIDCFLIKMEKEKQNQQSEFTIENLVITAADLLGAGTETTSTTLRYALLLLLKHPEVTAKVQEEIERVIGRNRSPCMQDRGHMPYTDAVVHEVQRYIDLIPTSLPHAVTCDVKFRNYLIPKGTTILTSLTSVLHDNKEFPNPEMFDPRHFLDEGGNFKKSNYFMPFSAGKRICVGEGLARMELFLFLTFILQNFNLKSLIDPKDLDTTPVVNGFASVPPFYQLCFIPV

Structure (SMILES): COc1cc(Nc2ccc3c(n2)CN(C)C32CCN(C3COC3)CC2)c(C(N)=O)nc1-c1cccc2c1ncn2C
- EC50 [1]: 43.3 nM
- half-life [2]: 1.45 h
- bioavailability [3]: 62.5%
- IC50 [4]: 325 nM
- IC50 [5]: 377 nM
- IC50 [6]: > 10000 nM
- IC50 [7]: > 10000 nM
- IC50 [8]: > 10000 nM
- IC50 [9]: > 10000 nM
- IC50 [10]: > 10000 nM
- IC50 [11]: > 10000 nM
- IC50 [12]: > 10000 nM
- IC50 [13]: 2110 nM
- IC50 [14]: 2990 nM
- Activity [15]: Non-toxic
- inhibition in vivo at 3 mg/kg [16]: 34.9%
- Activity [17]: Non-toxic
- solubility kinetic at 24 h [18]: 2.14 µM (≈ 1.19 µg/mL)
- Papp at […] [19]: 4.2 ×10⁻⁶ cm/s
- efflux ratio [20]: 8.4
- fraction unbound at 4 h, 2 µM [21]: 0.129
- fraction unbound at 4 h, 2 µM [22]: 0.309
- fraction unbound at 4 h, 2 µM [23]: 0.153
- IC50 [24]: > 50000 nM
- IC50 [25]: > 50000 nM
- IC50 [26]: > 10000 nM
- Activity [27]: Non-toxic
- Activity [28]: Non-toxic
- EC50 [29]: 49.2 nM
- AUC/dose [30]: 560.5 ng·h/mL
- half-life [31]: 7.65 h
- bioavailability [32]: 41.5%
